Legend:
[1] = molecular target: Calcitonin gene-related peptide type 1 receptor (Homo sapiens, UniProt Q16602); experiment: Binding affinity to human CGRP receptor
[2] = Hydrolytic stability assessed as compound remaining in water at 0.15 mg/mL at pH 4 after 4 weeks; format: physicochemical; conditions: read-out: Activity
[3] = Oxidative stability assessed as formation of N-((R)-1-(1,4'-bipiperidin-1'-yl)-3-(7-methyl-1H-indazol-5-yl)-1-oxopropan-2-yl)-4-(8-fluoro-4-hydroxy-2-oxo-1,2-dihydroquinazolin-3(4H)-yl)piperidine-1-carboxamide in 0.05 M buffer at pH 5 after 12 weeks; format: physicochemical; conditions: pH 5, 2016 h
[4] = Hydrolytic stability assessed as formation of 8-fluoro-3-(piperidin-4-yl)-3,4-dihydroquinazolin-2(1H)-one in 0.05 M buffer at pH 5 after 12 weeks; format: physicochemical; parameters: scale not given: the % may be the effect or the level left; conditions: pH 5, 2016 h
[5] = Oxidative stability assessed as compound remaining in water at 0.15 mg/mL at pH 4 after 48 hrs in presence of free radical generator AAPH; format: physicochemical; conditions: read-out: Activity
[6] = Hydrolytic stability assessed as formation of (R)-2-(4-(8-fluoro-2-oxo-1,2-dihydroquinazolin-3(4H)-yl)piperidine-1-carboxamido)-3-(7-methyl-1H-indazol-5-yl)propanoic acid in 0.05 M buffer at pH 5 after 12 weeks; format: physicochemical; parameters: scale not given: the % may be the effect or the level left; conditions: pH 5, 2016 h
[7] = Solubility at pH 7; format: physicochemical; conditions: buffer

Chain of Calcitonin gene-related peptide type 1 receptor (Q16602 whole entry): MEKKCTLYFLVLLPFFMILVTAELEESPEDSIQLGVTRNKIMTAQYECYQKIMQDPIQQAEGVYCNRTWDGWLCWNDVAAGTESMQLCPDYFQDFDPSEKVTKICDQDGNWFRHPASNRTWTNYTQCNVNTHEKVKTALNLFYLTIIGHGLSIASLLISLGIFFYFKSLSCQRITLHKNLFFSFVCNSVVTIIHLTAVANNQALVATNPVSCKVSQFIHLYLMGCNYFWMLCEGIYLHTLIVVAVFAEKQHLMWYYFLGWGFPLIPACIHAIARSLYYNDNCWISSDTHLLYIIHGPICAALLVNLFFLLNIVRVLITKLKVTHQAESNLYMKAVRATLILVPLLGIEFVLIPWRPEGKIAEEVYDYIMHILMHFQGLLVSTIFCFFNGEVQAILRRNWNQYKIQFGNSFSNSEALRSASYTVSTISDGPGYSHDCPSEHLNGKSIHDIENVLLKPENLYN

## Cc1cc(C[C@@H](OC(=O)N2CCC(c3cc4ccccc4[nH]c3=O)CC2)C(=O)N2CCN(C3CCCCC3)CC2)cc2cn[nH]c12
[1]
  IC50: 20 pM

## Cc1cc(C[C@@H](NC(=O)N2CCC(N3Cc4cccc(F)c4NC3=O)CC2)C(=O)N2CCC(N3CCCCC3)CC2)cc2cn[nH]c12
[2]
  remaining at 672 h, 0.15 mg/mL: 56%
[3]
  Activity: 2%
[4]
  Activity: 0.4%
[5]
  remaining at 48 h, 0.15 mg/mL: 72%
[6]
  Activity: 0.2%

## Cc1cc(C[C@@H](OC(=O)N2CCC(N3Cc4ccc(F)cc4NC3=O)CC2)C(=O)N2CCC(N3CCCCC3)CC2)cc2cn[nH]c12
[1]
  IC50: 22 pM

## Cc1cc(C[C@@H](OC(=O)N2CCC(c3cc4cccc(F)c4[nH]c3=O)CC2)C(=O)N2CCC(N3CCCCC3)CC2)cc2cn[nH]c12
[1]
  IC50: 57 pM

## Cc1cc(C[C@@H](OC(=O)N2CCC(N3Cc4ccccc4NC3=O)CC2)C(=O)N2CCC(N3CCCCC3)CC2)cc2cn[nH]c12
[1]
  IC50: 10 pM

## Cc1cc(C[C@@H](OC(=O)N2CCC(c3cc4ccccc4[nH]c3=O)CC2)C(=O)N2CCC(N3CC=CCC3)CC2)cc2cn[nH]c12
[1]
  IC50: 53 pM

## Cc1cc(C[C@@H](OC(=O)N2CCC(c3cc4ccccc4cn3)CC2)C(=O)N2CCC(N3CCCCC3)CC2)cc2cn[nH]c12
[1]
  IC50: 180 pM

## Cc1cc(C[C@@H](OC(=O)N2CCC(c3cc4ccccc4[nH]c3=O)CC2)C(=O)N2CCCCC2)cc2cn[nH]c12
[1]
  IC50: 1800 pM

## Cc1cc(C[C@@H](OC(=O)N2CCC(c3cc4ccccc4[nH]c3=O)CC2)C(=O)N2CCC3(CCN(C)CC3)CC2)cc2cn[nH]c12
[1]
  IC50: 44 pM

## Cc1cc(C[C@@H](OC(=O)N2CCC(n3cc(-c4ccccc4)[nH]c3=O)CC2)C(=O)N2CCC(N3CCCCC3)CC2)cc2cn[nH]c12
[1]
  IC50: 68 pM

## Cc1cc(C[C@@H](OC(=O)N2CCC(c3cc4ccccc4[nH]c3=O)CC2)C(=O)N2CCN(c3ccc(F)cc3)CC2)cc2cn[nH]c12
[1]
  IC50: 130 pM

## Cc1cc(C[C@@H](OC(=O)N2CCC(c3cc4ccccc4[nH]c3=O)CC2)C(=O)N2CCC(N3CCCCC3)CC2)cc2cn[nH]c12
[2]
  remaining at 672 h, 0.15 mg/mL: 99%
[7]
  solubility: > 50 mg/mL
[1]
  IC50: 17 pM
[5]
  remaining at 48 h, 0.15 mg/mL: 97%

## Cc1cc(C[C@@H](OC(=O)N2CCC(c3cc4ccccc4[nH]c3=O)CC2)C(=O)N2CCN(c3ccncc3)CC2)cc2cn[nH]c12
[1]
  IC50: 63 pM

## Cc1cc(C[C@@H](OC(=O)N2CCC(N3Cc4cccc(F)c4NC3=O)CC2)C(=O)N2CCC(N3CCCCC3)CC2)cc2cn[nH]c12
[1]
  IC50: 11 pM

Reference: ChEMBL document CHEMBL1136981, “Carbamates as potent calcitonin gene-related peptide antagonists with improved solution stability” (Bioorg Med Chem Lett, 2009)
